Results as given in ChEMBL document CHEMBL3352080, “Kojic acid derived hydroxypyridinone-chloroquine hybrids: synthesis, crystal structure, antiplasmodial activity and β-haematin inhibition” (Bioorg Med Chem Lett, 2014).

Experiments:
Plasmodium falciparum [1] = assay: Antiplasmodial activity against Plasmodium falciparum K1 infected in erythrocytes assessed as [3H]hypoxanthine incorporation after 24 hrs by microbeta scintillation counting analysis; format: functional, organism-based
Plasmodium falciparum [2] = assay: Resistance index, ratio of IC50 for Plasmodium falciparum K1 to IC50 for Plasmodium falciparum 3D7; format: functional
Plasmodium falciparum [3] = assay: Antiplasmodial activity against Plasmodium falciparum 3D7 infected in erythrocytes assessed as [3H]hypoxanthine incorporation after 24 hrs by microbeta scintillation counting analysis; format: functional, organism-based
[4] = Inhibition of beta-haematin complex formation after 60 mins by spectrophotometry relative to chloroquine; format: physicochemical

Row | Structure (SMILES) | IC50 (Plasmodium falciparum [1]) [nM] | Ratio IC50 (Plasmodium falciparum [2]) | IC50 (Plasmodium falciparum [3]) [nM] | IC50 [4] [equiv]
1 | Cn1cc(O)c(=O)cc1CNCCCNc1ccnc2cc(Cl)ccc12 | 360 | 2.2 | 120 | 6.12
2 | CN(CCCNc1ccnc2cc(Cl)ccc12)Cc1cc(=O)c(O)cn1C | 270 | 1 | 40 | 1.95
3 | Cn1cc(O)c(=O)cc1CNCCCCNc1ccnc2cc(Cl)ccc12 | 720 | 0.1 | 670 | 
4 | Cn1cc(O)c(=O)cc1CNCCCCCCNc1ccnc2cc(Cl)ccc12 | 970 | 1.7 | 150 | 0.7
5 | O=c1cc(CNCCNc2ccnc3cc(Cl)ccc23)n(C2CC2)cc1O | 460 | 1.6 | 300 | 1.41
6 | O=c1cc(CNCCCNc2ccnc3cc(Cl)ccc23)n(C2CC2)cc1O | 850 | 3.6 | 160 | 2.62
7 | CN(CCCNc1ccnc2cc(Cl)ccc12)Cc1cc(=O)c(O)cn1C1CC1 | 360 | 1.5 | 170 | 5.24
8 | O=c1cc(CNCCCCNc2ccnc3cc(Cl)ccc23)n(C2CC2)cc1O | 30 | 2.1 | 4 | 2.57
9 | O=c1cc(CNCCCCCCNc2ccnc3cc(Cl)ccc23)n(C2CC2)cc1O | 80 | 2.7 | 30 | 1.39
10 | Cn1cc(OCc2ccccc2)c(=O)cc1CNCCNc1ccnc2cc(Cl)ccc12 | 2560 | 4.7 | 540 | 1.27
11 | Cn1cc(OCc2ccccc2)c(=O)cc1CNCCCNc1ccnc2cc(Cl)ccc12 | 1750 | 3 | 300 | 1.3
12 | CN(CCCNc1ccnc2cc(Cl)ccc12)Cc1cc(=O)c(OCc2ccccc2)cn1C | 2080 | 6.9 | 390 | 1.98
13 | Cn1cc(OCc2ccccc2)c(=O)cc1CNCCCCNc1ccnc2cc(Cl)ccc12 | 270 | 2.2 | 240 | 0.42
14 | Cn1cc(OCc2ccccc2)c(=O)cc1CNCCCCCCNc1ccnc2cc(Cl)ccc12 | 150 | 0.4 | 40 | 0.51
15 | O=c1cc(CNCCNc2ccnc3cc(Cl)ccc23)n(C2CC2)cc1OCc1ccccc1 | 40 | 1 | 210 | 0.56
16 | O=c1cc(CNCCCNc2ccnc3cc(Cl)ccc23)n(C2CC2)cc1OCc1ccccc1 | 1710 | 7.1 | 190 | 0.22
17 | CN(CCCNc1ccnc2cc(Cl)ccc12)Cc1cc(=O)c(OCc2ccccc2)cn1C1CC1 | 70 | 0.1 | 150 | 
18 | O=c1cc(CNCCCCNc2ccnc3cc(Cl)ccc23)n(C2CC2)cc1OCc1ccccc1 | 320 | 5.3 | 160 | 0.82
19 | O=c1cc(CNCCCCCCNc2ccnc3cc(Cl)ccc23)n(C2CC2)cc1OCc1ccccc1 | 320 | 7.5 | 4 | 0.071
20 | Cn1cc(O)c(=O)cc1CNCCNc1ccnc2cc(Cl)ccc12 | 1450 | 3 | 580 | 0.63
21 | C[C@@H]1CC[C@H]2[C@@H](C)C(=O)O[C@@H]3O[C@@]4(C)CC[C@@H]1[C@]32OO4 [ARTEMISININ] | 4 | 0.4 | 9 | 
22 | CCN(CC)CCCC(C)Nc1ccnc2cc(Cl)ccc12 (configuration not stated) [CHLOROQUINE] |  |  |  | 1.9
